Experimental data: patent publication US8399676B2, “Piperidine derivatives” (Hoffman-La Roche Inc., priority 2009, dated 2013)
Structures can show the parent of a compound that is named as a salt.

What follows are compounds tested against T1, human HSL (Homo sapiens, UniProt Q05469) (assay: Human Hormone-Sensitive Lipase (HSL) enzyme inhibition assay (colorimetric, DMPT substrate)). Settings: read-out: HSL hum IC50.
T1 construct: generate a full length human HSL ORF with a 3′-His6 tag; His6 (C); made in house; host or cells: High 5 insect cells (baculovirus, pFast-BAC)
T1 sequence (Q05469 1-1076): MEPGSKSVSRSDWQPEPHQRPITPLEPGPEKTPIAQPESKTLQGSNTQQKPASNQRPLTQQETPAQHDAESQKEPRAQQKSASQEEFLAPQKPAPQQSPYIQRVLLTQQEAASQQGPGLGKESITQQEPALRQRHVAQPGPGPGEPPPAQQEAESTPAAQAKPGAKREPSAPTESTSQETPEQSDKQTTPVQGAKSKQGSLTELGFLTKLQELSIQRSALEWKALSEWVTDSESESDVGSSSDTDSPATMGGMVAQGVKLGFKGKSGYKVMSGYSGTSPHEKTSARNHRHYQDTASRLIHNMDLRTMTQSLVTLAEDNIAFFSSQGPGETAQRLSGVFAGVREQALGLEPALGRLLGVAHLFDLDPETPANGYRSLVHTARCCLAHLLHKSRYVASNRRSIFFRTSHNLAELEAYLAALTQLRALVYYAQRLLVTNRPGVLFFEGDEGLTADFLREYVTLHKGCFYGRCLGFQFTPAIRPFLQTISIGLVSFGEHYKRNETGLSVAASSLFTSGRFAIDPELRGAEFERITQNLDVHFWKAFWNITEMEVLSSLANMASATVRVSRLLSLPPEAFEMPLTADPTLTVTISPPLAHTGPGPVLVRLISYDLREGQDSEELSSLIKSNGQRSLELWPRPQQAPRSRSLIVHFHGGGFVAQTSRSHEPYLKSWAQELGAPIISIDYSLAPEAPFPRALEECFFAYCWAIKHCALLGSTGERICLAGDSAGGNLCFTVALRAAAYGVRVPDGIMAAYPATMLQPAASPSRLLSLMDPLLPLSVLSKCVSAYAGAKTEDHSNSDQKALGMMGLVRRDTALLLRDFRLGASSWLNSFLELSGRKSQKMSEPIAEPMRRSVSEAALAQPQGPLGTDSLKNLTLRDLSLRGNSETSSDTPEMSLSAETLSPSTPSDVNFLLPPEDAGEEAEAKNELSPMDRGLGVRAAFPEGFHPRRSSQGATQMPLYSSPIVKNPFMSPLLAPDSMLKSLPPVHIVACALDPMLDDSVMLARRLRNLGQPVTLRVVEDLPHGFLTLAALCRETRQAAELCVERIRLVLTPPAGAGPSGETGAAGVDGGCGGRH
Type: biochemical
Description: Production of Human Full Length Hormone Sensitive Lipase-His^6
1) Cloning: cDNA was prepared from commercial human brain polyA+ RNA and used as a template in overlapping PCR to generate a full length human HSL ORF with a 3′-His6 tag. This full length insert was cloned into the pFast-BAC vector and the DNA-sequence of several single clones was verified. DNA from a correct full length clone with the 3′His6 tag was used to transform the E. coli strain DH10BAC. Resulting bacmid DNA was used to generate a titered baculovirus stock for protein generation. The sequence of the encoded HSL conforms to Swissprot entry Q05469, with the additional C-terminal His6-tag.
2) Protein purification: Culture: 5.5 L, High 5 cells expressing human full length HSL-His^6, 48 hr., containing 25 μM E-64. Cell count: […], 90% viable.
Cells were thawed. On ice, cells were suspended in Base Buffer containing 10% glycerol, 25 mM Tris-Cl, 300 mM NaCl, 10 mM imidazole, 10 mM 2-mercaptoethanol, 2 μg pepstatin/ml, 2 μg leupeptin/ml, 2 μg antipain/ml, pH 8.0 at 4° C. in a final volume of 475 ml with 3.75×10^7 cells/ml. […] was done at 3×30 sec., Lubrol PX was added to 0.2% final concentration followed by stirring for 15 min. at 4° C. and centrifugation at 25 k×g, 60 min., 4° C. Soluble proteins were mixed with 60 ml of pre-washed and equilibrated Ni-NTA Agarose (Qiagen 30210) followed by tumbling end-over-end, 45 min., 4° C., centrifugation 1000 rpm 5 min and letting resin settle 5 min. Supernatant was removed, the resin washed in the centrifuge vessel using 5 volumes of Base Buffer containing 0.2% Lubrol PX. Centrifugation was done again, then the supernatant discarded. The resin was poured onto a 0.8 μm membrane in a disposable filter unit (Nalge 450-0080), and washed with 5 volumes of Base Buffer containing 0.2% Lubrol PX. It was then washed with 30 volumes of Base Buffer containing 60 mM imidazole pH 7.5 at 4° C. The protein was eluted with 5 volumes of 25 mM Tris-Cl, 300 mM NaCl, 200 mM imidazole, 10 mM 2-mercaptoethanol, pH 7.5 at 4° C. by tumbling resin with buffer end-over-end, 30 min., 4° C. The resin was captured on a 0.2 μm membrane disposable filter unit (Millipore SCGP U02 RE) and the elute collected in the reservoir. The elute was concentrated using a 30 k MWCO centrifugal filter device (Sartorius Vivascience Vivacell 100, VC1022), to 20 ml. It was then dialyzed overnight at 4° C., two times against 2 L of 10% glycerol, 25 mM Tris-Cl, 300 mM NaCl, 0.2 mM EDTA, 0.2 mM DTT, pH 7.5 at 4° C. The protein was filtered using a 0.22 μm disposable filter unit (Millipore SCGP00525). The protein concentration was calculated from absorbance at 280 nm, using 280=0.67 cm-1 mg-1. Yield was 235 mg, total. The protein was stored at −80° C. Human Hormone-Sensitive Lipase (HSL) enzyme inhibition assay:
HSL enzyme activity was measured by a colorimetric assay using 2,3-dimercapto-1-propanol tributyrate (Aldrich, St. Louis, Mo.) as a substrate. Typically, 1.5 mM 2,3-dimercapto-1-propanol tributyrate (DMPT) in 100 mM MOPS, pH 7.2, 0.2 mg/ml fatty acid-free BSA was prepared by sonication at 4° C. to homogenous suspension. Test compounds (2 mM stock in DMSO) were diluted 3 fold in series in DMSO. Compound solutions were diluted 24 fold in 1.5 mM DMPT containing solution and 18 ul per well was added to 384-well microplates (Corning Costar). Twelve microliters per well of human HSL (15 ug/ml) was added and the reaction mixture was incubated at 37° C. for 20 minutes. Six microliters of 12 mM dithio-bis-(2-nitrobenzoic acid) (DTNB) in DMSO plus 1.2% SDS and 0.6% Triton X-100 were added and the mixture was incubated at room temperature for 15 minutes. Product production was monitored by reading absorbance at 405 nm on an Envision Reader (PerkinElmer Life and Analytical Sciences, Shelton, Conn.).
In the case of Cc1ccc(S(=O)(=O)N2CCC(O)(C(=O)N(C)c3ccc(OC(F)(F)F)cc3)CC2)cc1 [Example 69, 4-Hydroxy-1-(toluene-4-sulfonyl)-piperidine-4-carboxylic acid methyl-(4-trifluoromethoxy-phenyl)-amide], the IC50 is reported as 140 nM.
In the case of Cc1ccc(S(=O)(=O)N2CCC(N)(C(=O)Nc3ccc(OC(C)C)cc3)CC2)cc1 [Example 79, 4-Amino-1-(toluene-4-sulfonyl)-piperidine-4-carboxylic acid (4-isopropoxy-phenyl)-amide; hydrochloride], the IC50 is reported as 130 nM.
With CCc1ccc(NC(=O)C2(N)CCN(S(=O)(=O)c3ccc(C)cc3)CC2)cc1 [Example 81, 4-Amino-1-(toluene-4-sulfonyl)-piperidine-4-carboxylic acid (4-ethyl-phenyl)-amide] the IC50 was 120 nM.
CC(C)(C)c1ccc(NC(=O)C2(O)CCN(C(=O)Nc3ccc(C(F)(F)F)cc3)CC2)cc1 [Example 15, 4-Hydroxy-piperidine-1,4-dicarboxylic acid 4-[(4-tert-butyl-phenyl)-amide] 1-[(4-trifluoromethyl-phenyl)-amide]] showed an IC50 of 410 nM.
In the case of Cc1ccccc1CN1CCC(O)(C(=O)Nc2ccc(C(C)(C)C)cc2)CC1 [Example 46, 4-Hydroxy-1-(2-methyl-benzyl)-piperidine-4-carboxylic acid (4-tert-butyl-phenyl)-amide], the IC50 is reported as 220 nM.
Compound CCCc1ccc(NC(=O)C2(N)CCN(S(=O)(=O)c3ccccc3Cl)CC2)cc1 [Example 98, 4-Amino-1-(2-chloro-benzenesulfonyl)-piperidine-4-carboxylic acid (4-propyl-phenyl)-amide] has an IC50 of 70 nM.
CCc1cccc(NC(=O)C2(N)CCN(S(=O)(=O)c3ccccc3Cl)CC2)c1 [Example 92, 4-Amino-1-(2-chloro-benzenesulfonyl)-piperidine-4-carboxylic acid (3-ethyl-phenyl)-amide] showed an IC50 of 860 nM.
For CN(C(=O)C1(O)CCN(S(=O)(=O)c2ccccc2F)CC1)c1ccc(OC(F)(F)F)cc1 [Example 70, 1-(2-Fluoro-benzenesulfonyl)-4-hydroxy-piperidine-4-carboxylic acid methyl-(4-trifluoromethoxy-phenyl)-amide], the IC50 was 90 nM.
CC(C)c1ccc(NC(=O)C2(N)CCN(S(=O)(=O)c3ccc(C(F)(F)F)cc3Cl)CC2)cc1 [Example 131, 4-Amino-1-(2-chloro-4-trifluoromethyl-benzenesulfonyl)-piperidine-4-carboxylic acid (4-isopropyl-phenyl)-amide] was tested, and the IC50 was 500 nM.
CC(C)CCC(=O)N1CCC(N)(C(=O)Nc2ccc(C(C)C)cc2)CC1 [Example 129, 4-Amino-1-(4-methyl-pentanoyl)-piperidine-4-carboxylic acid (4-isopropyl-phenyl)-amide] was tested, and the IC50 was 480 nM.
For COC1(C(=O)Nc2ccc(C(C)(C)C)cc2)CCN(S(=O)(=O)c2ccccc2Cl)CC1 [Example 76, 1-(2-Chloro-benzenesulfonyl)-4-methoxy-piperidine-4-carboxylic acid (4-tert-butyl-phenyl)-amide], the IC50 was 530 nM.
With CCc1ccc(NC(=O)C2(N)CCN(S(=O)(=O)c3ccccc3C(F)(F)F)CC2)cc1 [Example 145, 4-Amino-1-(2-trifluoromethyl-benzenesulfonyl)-piperidine-4-carboxylic acid (4-ethyl-phenyl)-amide] the IC50 was 130 nM.
CC(C)c1ccc(NC(=O)C2(N)CCN(S(=O)(=O)c3ccc(C(C)C)cc3)CC2)cc1 [Example 83, 4-Amino-1-(4-isopropyl-benzenesulfonyl)-piperidine-4-carboxylic acid (4-isopropyl-phenyl)-amide; hydrochloride] was tested, and the IC50 was 230 nM.
In the case of O=C(Nc1ccc(F)cc1)N1CCC(O)(C(=O)Nc2ccc(OC(F)(F)F)cc2)CC1 [Example 52, 4-Hydroxy-piperidine-1,4-dicarboxylic acid 1-[(4-fluoro-phenyl)-amide] 4-[(4-trifluoromethoxy-phenyl)-amide]], the IC50 is reported as 950 nM.
